Each compound was assayed on L-M cells (assay: NGF production and secretion by L-M cells (Furukawa method), NGF level in medium determined by enzyme immunoassay). Settings: Mus musculus; compounds of the invention at 10 γ/ml; L-M cells cultured 24 hours; NGF amount relative to cells not treated with test compound; read-out: % Control.
Format: cell-based, mouse
Excerpt: Furukawa et al. reported that L-M cells of a fibroblast cell line from mouse connective tissue can produce and secrete a relatively large amount of NGF, and that catecholamines accelerate such production and secretion of NGF (J. Biol. Chem., 261, 6039-6047, 1986). Following the test method described in this Furukawa paper, but using the compounds of the invention and recognized NGF promoters epinephrine, isoproterenol, L-DOPA, and caffeic acid, NGF production and secretion activities were examined. The test compounds of this invention were employed at 10 γ/ml, and the known compounds were employed at 20 γ/ml.
Culture medium 199 containing 0.5% peptone was used for culturing L-M cells (for the culture medium 199, see, for instance, Morgan et al., Proc. Soc. Exp. Biol. Med., 73, 1 (1950) or Morgan et al. J. Natl. Cancer Inst., 16, 557 (1955). About 5 x 10⁴ of L-M cells were placed in each well of a culture plate with 24 wells, and cultured using a CO₂ incubator (37°C, 5% CO₂) until confluence. After removing the culture medium, the cultured cells were washed once with 199 culture medium containing 0.5% bovine serum albumin (Fraction V, Sigma). The test compounds were added to a specified concentration to a 199 culture medium containing 0.5% bovine serum albumin, and treated with 0.5 ml of L-M cells. After culturing the L-M cells in a CO₂ incubator for 24 hours, the medium was recovered and the NGF level was determined.
NGF was determined using an enzyme immunoassay (Korshing and Thoenen, Proc. Natl. Acad. Sci. USA, 80, 3513-3516, 1983). A solution (each 75 µl) of anti-mouse β-NGF antibody (0.3 µg/ml, pH 9.6; Boehringer Mannheim) was pipetted into each well of a polystyrene plate with 96 wells. After allowing the plate to stand at room temperature for an hour, the antibody was removed by washing three times with detergent solution. A solution (50 µl) of standard β-NGF (Wako Pure Chemical Industries Ltd.) or the recovered medium (50 µl) for each of the test compounds was pipetted into each well. After allowing the plate to stand at room temperature for 6 - 8 hours, the standard β-NGF or test solution was removed and each well was washed three times. A solution (50 µl) of β-NGF monoclonal antibody (100 mU/ml, pH 7.0; Boehringer Mannheim) labelled with β-galactosidase was pipetted into each well. After allowing the plate to stand at 4°C for 15 - 18 hours, enzyme labelled antibody was removed and the wells washed three times followed by pipetting a solution (100 µl) of chlorophenol red-β-D-galactopyranoside (1 mg/ml, pH 7.3; Boehringer Mannheim) into each well. Colour was allowed to develop (2 - 3 hours at room temperature), and the absorbance was determined at 570 nm. The amount of NGF was calculated from a standard curve. The results are expressed as a relative value (%) which is relative to the amount of NGF produced and secreted by cells treated not with the test compounds. The numerical values (% control) are expressed by the mean value in the 3 wells of the control (without addition of the test compounds).

Row | SMILES | activity at 10 µg/mL
1 | CC(=O)Oc1cc2c(cc1OC(C)=O)CC(C(=O)Nc1ccc(Cl)cc1Cl)CC2 (centres unmarked) [Example 91, N-(2,4-dichlorophenyl)-6,7-diacetoxy-1,2,3,4-tetrahydro-2-naphthamide] | 575%
2 | CC(=O)Oc1cc2c(cc1OC(C)=O)CC(C(=O)NC13CC4CC(CC(C4)C1)C3)CC2 (centres unmarked) [Example 93, N-(1-adamantyl)-6,7-diacetoxy-1,2,3,4-tetrahydro-2-naphthamide] | 941%
3 | CC(=O)Oc1cc2c(cc1OC(C)=O)CCC(C(=O)Nc1ccc(Cl)cc1Cl)=C2 [Example 94, N-(2,4-dichlorophenyl)-6,7-diacetoxy-3,4-dihydro-2-naphthamide] | 459%
4 | CC(=O)Oc1cc2c(cc1OC(C)=O)CCC(C(=O)Nc1cnc3ccccc3c1)=C2 [Example 95, N-(3-quinolyl)-6,7-diacetoxy-3,4-dihydro-2-naphthamide] | 341%
5 | CC(=O)Oc1cc2c(cc1OC(C)=O)CCC(C(=O)NC13CC4CC(CC(C4)C1)C3)=C2 [Example 96, N-(1-adamantyl)-6,7-diacetoxy-3,4-dihydro-2-naphthamide] | 558%

Same assay, conditions: Mus musculus; known compounds at 20 γ/ml; L-M cells cultured 24 hours; NGF amount relative to cells not treated with test compound; read-out: % Control

Row | SMILES | activity at 20 µg/mL
6 | N[C@@H](Cc1ccc(O)c(O)c1)C(=O)O [L-DOPA, reference compound] | 117 ± 7%
7 | O=C(O)/C=C/c1ccc(O)c(O)c1 [caffeic Acid, caffeic acid, reference compound] | 123 ± 14%
8 | CNC[C@H](O)c1ccc(O)c(O)c1 [epinephrine, reference compound] | 140 ± 24%
9 | CC(C)NCC(O)c1ccc(O)c(O)c1 (centres unmarked) [isoproterenol, reference compound] | 168 ± 22%

Same assay, conditions: compounds of the invention at 10 γ/ml; L-M cells cultured 24 hours; NGF amount relative to cells not treated with test compound

Row | SMILES | % Control
10 | CC(=O)Oc1ccc(CCC(=O)Nc2cc(Cl)ccc2Cl)cc1OC(C)=O [Example 1, N-(2,5-dichlorophenyl)-3,4-diacetoxyphenylpropionamide] | 201%
11 | CC(=O)Oc1ccc(CCCC(=O)NC23CC4CC(CC(C4)C2)C3)cc1OC(C)=O [Example 46, N-(1-adamantyl)-3,4-diacetoxyphenylbutyrylamide] | 939%
